Source: patent publication US20100076015A1, “Aminopyridine Derivatives” (VANTIA LIMITED, priority 2008, published 2010)

Assays:
Format in all cases: biochemical
[1] = target: T1, Human KLK1 (Homo sapiens, UniProt P06870); assay: Determination of the IC50 for KLK1 (fluorogenic substrate H-DVal-Leu-Arg-AFC); conditions: 37° C.
T1 construct: purchased Callbiochem (Calbiochem)
Method in brief: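 Human KLK1 incubated at 37 °C with fluorogenic substrate H-DVal-Leu-Arg-AFC and a range of test compound concentrations. Residual activity was taken as initial reaction rate from absorbance change at 410 nm, and the IC50 derived from it.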

[2] = target: plasmin (Homo sapiens, UniProt P00747); assay: Enzyme selectivity: plasmin (chromogenic substrate S-2390); conditions: chromogenic substrate S-2390, 37° C.
plasmin, sequence (P00747 581-810 limits assumed): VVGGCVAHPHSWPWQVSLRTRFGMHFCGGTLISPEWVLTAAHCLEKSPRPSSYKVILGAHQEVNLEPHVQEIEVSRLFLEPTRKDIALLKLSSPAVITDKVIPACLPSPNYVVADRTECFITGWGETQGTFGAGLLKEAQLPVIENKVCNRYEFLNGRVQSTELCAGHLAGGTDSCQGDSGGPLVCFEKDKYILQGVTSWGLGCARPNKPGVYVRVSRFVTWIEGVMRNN
plasmin, sequence (P00747 97-580 partner limits assumed): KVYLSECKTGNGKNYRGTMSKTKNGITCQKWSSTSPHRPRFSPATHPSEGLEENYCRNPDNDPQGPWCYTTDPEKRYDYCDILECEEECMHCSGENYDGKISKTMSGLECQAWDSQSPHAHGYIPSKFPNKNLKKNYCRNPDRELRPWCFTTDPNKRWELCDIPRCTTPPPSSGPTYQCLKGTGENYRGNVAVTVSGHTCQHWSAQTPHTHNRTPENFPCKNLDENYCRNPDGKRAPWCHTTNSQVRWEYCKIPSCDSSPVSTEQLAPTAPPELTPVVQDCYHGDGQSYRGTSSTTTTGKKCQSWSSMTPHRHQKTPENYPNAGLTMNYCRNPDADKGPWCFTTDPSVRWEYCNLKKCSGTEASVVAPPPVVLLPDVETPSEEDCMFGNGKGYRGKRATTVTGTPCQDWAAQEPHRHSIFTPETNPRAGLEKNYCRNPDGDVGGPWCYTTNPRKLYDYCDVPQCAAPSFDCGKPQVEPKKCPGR
Protocol: (§1) Determination of Enzyme Selectivity
(§2) Selected compounds were further screened for inhibitory activity against other trypsin-like serine proteases using the appropriate enzyme and chromogenic substrate (Chromogenix AB). The activity against the following human enzymes was tested (substrate in brackets):—plasma kallikrein (S-2302), thrombin (S-2238), plasmin (S-2390) and trypsin (S-2222). The enzyme was incubated at 37° C. with the chromogenic substrate. Residual enzyme activity (initial rate of reaction) was determined by measuring the change in optical absorbance at 405 nm.

[3] = target: plasma kallikrein (Homo sapiens, UniProt P03952); assay: Enzyme selectivity: plasma kallikrein (chromogenic substrate S-2302); conditions: chromogenic substrate S-2302, 37° C.
plasma kallikrein, sequence (P03952 20-638): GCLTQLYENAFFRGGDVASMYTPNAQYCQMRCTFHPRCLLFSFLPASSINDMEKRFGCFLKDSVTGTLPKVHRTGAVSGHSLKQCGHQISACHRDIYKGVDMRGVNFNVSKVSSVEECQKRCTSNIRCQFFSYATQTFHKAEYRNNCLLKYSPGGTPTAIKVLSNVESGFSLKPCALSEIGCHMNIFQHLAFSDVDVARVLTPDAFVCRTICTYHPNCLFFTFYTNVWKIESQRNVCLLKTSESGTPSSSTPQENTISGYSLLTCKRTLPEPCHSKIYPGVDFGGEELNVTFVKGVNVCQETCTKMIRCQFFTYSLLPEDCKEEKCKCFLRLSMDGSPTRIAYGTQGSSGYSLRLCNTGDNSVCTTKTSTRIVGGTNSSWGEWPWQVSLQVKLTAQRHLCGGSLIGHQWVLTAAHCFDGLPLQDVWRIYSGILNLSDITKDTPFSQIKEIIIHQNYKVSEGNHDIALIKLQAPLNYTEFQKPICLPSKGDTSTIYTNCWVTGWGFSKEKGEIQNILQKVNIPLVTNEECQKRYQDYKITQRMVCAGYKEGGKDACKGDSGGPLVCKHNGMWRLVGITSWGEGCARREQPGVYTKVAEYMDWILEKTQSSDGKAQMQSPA
Protocol: as §1, §2

[4] = target: thrombin (Homo sapiens, UniProt P00734); assay: Enzyme selectivity: thrombin (chromogenic substrate S-2238); conditions: chromogenic substrate S-2238, 37° C.
Protocol: as §1, §2

[5] = target: trypsin; assay: Enzyme selectivity: trypsin (chromogenic substrate S-2222); conditions: human enzyme, chromogenic substrate S-2222, 37° C.
Protocol: as §1, §2

T1 sequence (P06870 25-262): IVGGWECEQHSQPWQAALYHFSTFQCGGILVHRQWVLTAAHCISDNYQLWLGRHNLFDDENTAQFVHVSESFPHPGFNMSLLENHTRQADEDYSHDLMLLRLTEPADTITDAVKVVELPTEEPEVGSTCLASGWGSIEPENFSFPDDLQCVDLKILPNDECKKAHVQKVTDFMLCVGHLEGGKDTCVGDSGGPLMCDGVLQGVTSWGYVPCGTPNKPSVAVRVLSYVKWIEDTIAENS

Row | IC50 [1] | IC50 [2] | IC50 [3] | IC50 [4] | IC50 [5] | Compound
1 | 0.0036 µM | > 10 µM | > 10 µM | > 10 µM | > 10 µM | CN1CCC[C@@H]1C(=O)N[C@@H](Cc1cccc2ccccc12)C(=O)NCc1ccc(N)nc1 [Example 92, (R)-1-Methyl-pyrrolidine-2-carboxylic acid {(S)-1-[(6-amino-pyridin-3-ylmethyl)-carbamoyl]-2-naphthalen-1-yl-ethyl}-amide]
2 | 0.00054 µM | > 10 µM | > 10 µM | > 10 µM | > 10 µM | CCN1CCC[C@@H]1C(=O)N[C@@H](Cc1ccc(F)c(F)c1)C(=O)NCc1ccc(N)nc1 [Example 131, (R)-1-Ethyl-pyrrolidine-2-carboxylic acid [(S)-1-[(6-amino-pyridin-3-ylmethyl)-carbamoyl]-2-(3,4-difluoro-phenyl)-ethyl]-amide]
3 | 0.0105 µM | > 10 µM | > 10 µM | > 10 µM | > 10 µM | CN1CCCC[C@@H]1C(=O)N[C@@H](Cc1ccc(F)cc1)C(=O)NCc1ccc(N)nc1 [Example 145, (R)-1-Methyl-piperidine-2-carboxylic acid [(S)-1-[(6-amino-pyridin-3-ylmethyl)-carbamoyl]-2-(4-fluoro-phenyl)-ethyl]-amide]
4 | 0.004 µM | > 10 µM | > 10 µM | > 10 µM | > 10 µM | CC(C)N(C)[C@@H](C)C(=O)N[C@@H](Cc1ccc(F)c(F)c1)C(=O)NCc1ccc(N)nc1 [Example 176, (S)—N-[(S)-1-[(6-Amino-pyridin-3-ylmethyl)-carbamoyl]-2-(3,4-difluoro-phenyl)-ethyl]-2-(isopropyl-methyl-amino)-propionamide]
5 | 0.0028 µM | > 10 µM | > 10 µM | > 10 µM | > 10 µM | CCC(C)[C@H](C(=O)N[C@@H](Cc1csc2ccccc12)C(=O)NCc1ccc(N)nc1)N(C)S(C)(=O)=O (stereo partly drawn) [Example 213, (R)-2-(Methanesulfonyl-methyl-amino)-3-methyl-pentanoic acid {(S)-1-[(6-amino-pyridin-3-ylmethyl)-carbamoyl]-2-benzo[b]thiophen-3-yl-ethyl}-amide]
6 | 0.0101 µM | > 10 µM | > 10 µM | > 10 µM | > 10 µM | Cc1cc[nH]c1C(=O)N[C@@H](Cc1ccc(F)c(F)c1)C(=O)NCc1ccc(N)nc1 [Example 226, 3-Methyl-1H-pyrrole-2-carboxylic acid [(S)-1-[(6-amino-pyridin-3-ylmethyl)-carbamoyl]-2-(3,4-difluoro-phenyl)-ethyl]-amide]
7 | 0.0053 µM | > 10 µM | > 10 µM | > 10 µM | > 10 µM | Nc1ccc(CNC(=O)[C@H](CC2CCCC3CCCCC32)NC(=O)c2ccc[nH]2)cn1 (stereo partly drawn) [Example 227, 1H-Pyrrole-2-carboxylic acid [(S)-1-[(6-amino-pyridin-3-ylmethyl)-carbamoyl]-2-(decahydro-naphthalen-1-yl)-ethyl]-amide]
8 | 0.0321 µM | > 10 µM | > 10 µM | > 10 µM | > 10 µM | Nc1ccc(CNC(=O)[C@H](Cc2cccc3ccccc23)NC(=O)c2ccc[nH]2)cn1 [Example 228, 1H-Pyrrole-2-carboxylic acid {(S)-1-[(6-amino-pyridin-3-ylmethyl)-carbamoyl]-2-naphthalen-1-yl-ethyl}-amide]
9 | 0.0034 µM | > 10 µM | > 10 µM | > 10 µM | > 10 µM | Nc1ccc(CNC(=O)[C@H](Cc2cccc(C(F)(F)F)c2)NC(=O)c2ccc[nH]2)cn1 [Example 229, 1H-Pyrrole-2-carboxylic acid [(S)-1-[(6-amino-pyridin-3-ylmethyl)-carbamoyl]-2-(3-trifluoromethyl-phenyl)-ethyl]-amide]
10 | 0.0031 µM | > 10 µM | > 10 µM | > 10 µM | > 10 µM | Cc1cc(C)c(C(=O)N[C@@H](Cc2cccc3ccccc23)C(=O)NCc2ccc(N)nc2)[nH]1 [Example 231, 3,5-Dimethyl-1H-pyrrole-2-carboxylic acid {(S)-1-[(6-amino-pyridin-3-ylmethyl)-carbamoyl]-2-naphthalen-1-yl-ethyl}-amide]
11 | 0.0015 µM | > 10 µM | > 10 µM | > 10 µM | > 10 µM | Cc1cc(C)c(C(=O)N[C@@H](Cc2cccc(C(F)(F)F)c2)C(=O)NCc2ccc(N)nc2)[nH]1 [Example 232, 3,5-Dimethyl-1H-pyrrole-2-carboxylic acid [(S)-1-[(6-amino-pyridin-3-ylmethyl)-carbamoyl]-2-(3-trifluoromethyl-phenyl)-ethyl]-amide]
12 | 0.0021 µM | > 10 µM | > 10 µM | > 10 µM | > 10 µM | Cc1cc(C)c(C(=O)N[C@@H](Cc2ccc(Cl)c(Cl)c2)C(=O)NCc2ccc(N)nc2)[nH]1 [Example 233, 3,5-Dimethyl-1H-pyrrole-2-carboxylic acid [(S)-1-[(6-amino-pyridin-3-ylmethyl)-carbamoyl]-2-(3,4-dichloro-phenyl)-ethyl]-amide]
13 | 0.0032 µM | > 10 µM | > 10 µM | > 10 µM | > 10 µM | Cc1cccc(C[C@H](NC(=O)c2[nH]c(C)cc2C)C(=O)NCc2ccc(N)nc2)c1 [Example 234, 3,5-Dimethyl-1H-pyrrole-2-carboxylic acid {(S)-1-[(6-amino-pyridin-3-ylmethyl)-carbamoyl]-2-m-tolyl-ethyl}-amide]
14 | 0.0024 µM | > 10 µM | > 10 µM | > 10 µM | > 10 µM | Cc1cc(C)c(C(=O)N[C@@H](Cc2cccc(Cl)c2)C(=O)NCc2ccc(N)nc2)[nH]1 [Example 235, 3,5-Dimethyl-1H-pyrrole-2-carboxylic acid [(S)-1-[(6-amino-pyridin-3-ylmethyl)-carbamoyl]-2-(3-chloro-phenyl)-ethyl]-amide]
15 | 0.0044 µM | > 10 µM | > 10 µM | > 10 µM | > 10 µM | Cc1cc(C)c(C(=O)N[C@@H](Cc2ccc(F)cc2)C(=O)NCc2ccc(N)nc2)[nH]1 [Example 242, 3,5-Dimethyl-1H-pyrrole-2-carboxylic acid [(S)-1-[(6-amino-pyridin-3-ylmethyl)-carbamoyl]-2-(4-fluoro-phenyl)-ethyl]-amide]
16 | 0.0034 µM | > 10 µM | > 10 µM | > 10 µM | > 10 µM | Cc1cc(C)c(C(=O)N[C@@H](Cc2ccc(F)c(F)c2)C(=O)NCc2ccc(N)nc2)[nH]1 [Example 243, 3,5-Dimethyl-1H-pyrrole-2-carboxylic acid [(S)-1-[(6-amino-pyridin-3-ylmethyl)-carbamoyl]-2-(3,4-difluoro-phenyl)-ethyl]-amide]
17 | 0.0009 µM | > 10 µM | > 10 µM | > 10 µM | > 10 µM | Cc1cc(C)c(C(=O)N[C@@H](Cc2cccc(C(F)(F)F)c2)C(=O)NCc2ccc(N)nc2C)[nH]1 [Example 277, 3,5-Dimethyl-1H-pyrrole-2-carboxylic acid [(S)-1-[(6-amino-2-methyl-pyridin-3-ylmethyl)-carbamoyl]-2-(3-trifluoromethyl-phenyl)-ethyl]-amide]
18 | 0.0025 µM | > 10 µM | > 10 µM | > 10 µM | > 10 µM | CCN(CC)[C@@H](C)C(=O)N[C@@H](Cc1ccc(F)c(F)c1)C(=O)NCc1ccc(N)nc1 [Example 355, (S)—N-[(S)-1-[(6-Amino-pyridin-3-ylmethyl)-carbamoyl]-2-(3,4-difluoro-phenyl)-ethyl]-2-diethylamino-propionamide]
19 | 0.0025 µM | > 10 µM | > 10 µM | > 10 µM | > 10 µM | CC1CCCC(C)N1CC(=O)N[C@@H](Cc1ccc(F)c(F)c1)C(=O)NCc1ccc(N)nc1 (stereo partly drawn) [Example 365, (S)—N-(6-Amino-pyridin-3-ylmethyl)-3-(3,4-difluoro-phenyl)-2-[2-(2,6-dimethyl-piperidin-1-yl)-acetylamino]-propionamide]
20 | 0.0011 µM | > 10 µM | > 10 µM | > 10 µM | > 10 µM | CC(C)N(C)[C@@H](C)C(=O)N[C@@H](CC1CCCCC1)C(=O)NCc1ccc(N)nc1 [Example 381, (S)—N-{(S)-1-[(6-Amino-pyridin-3-ylmethyl)-carbamoyl]-2-cyclohexyl-ethyl}-2-(isopropyl-methyl-amino)-propionamide]
21 | 0.0027 µM | > 10 µM | > 10 µM | > 10 µM | > 10 µM | CCN(CC)[C@@H](C)C(=O)N[C@@H](CC1CCCCC1)C(=O)NCc1ccc(N)nc1 [Example 390, (S)—N-{(S)-1-[(6-Amino-pyridin-3-ylmethyl)-carbamoyl]-2-cyclohexyl-ethyl}-2-diethylamino-propionamide]

Row | Compound | IC50 [1] | IC50 [2] | IC50 [3] | IC50 [4] | IC50 [5]
22 | CC(C)N(CC(=O)N[C@@H](Cc1ccc(F)c(F)c1)C(=O)NCc1ccc(N)nc1)C(C)C [Example 157, (S)—N-(6-Amino-pyridin-3-ylmethyl)-3-(3,4-difluoro-phenyl)-2-(2-diisopropylamino-acetylamino)-propionamide] | 0.123 µM | > 10 µM | > 10 µM | > 10 µM | > 10 µM
